According to ChEMBL document CHEMBL1144573, “Lead optimization of [(S)-gamma-(arylamino)prolyl]thiazolidine focused on gamma-substituent: Indoline compounds as potent DPP-IV inhibitors” (Bioorg Med Chem, 2007):

Assays:
Dipeptidyl peptidase 4 [1] = molecular target: Dipeptidyl peptidase 4 (Rattus norvegicus, UniProt P14740); assay: Inhibition of DPP4 in rat plasma by fluorescence assay; type: cell-free
Dipeptidyl peptidase 4 [2] = molecular target: Dipeptidyl peptidase 4 (Homo sapiens, UniProt P27487); type: cell-free, Plasma
Sequence of Dipeptidyl peptidase 4 (Homo sapiens, UniProt P27487) (P27487 whole entry): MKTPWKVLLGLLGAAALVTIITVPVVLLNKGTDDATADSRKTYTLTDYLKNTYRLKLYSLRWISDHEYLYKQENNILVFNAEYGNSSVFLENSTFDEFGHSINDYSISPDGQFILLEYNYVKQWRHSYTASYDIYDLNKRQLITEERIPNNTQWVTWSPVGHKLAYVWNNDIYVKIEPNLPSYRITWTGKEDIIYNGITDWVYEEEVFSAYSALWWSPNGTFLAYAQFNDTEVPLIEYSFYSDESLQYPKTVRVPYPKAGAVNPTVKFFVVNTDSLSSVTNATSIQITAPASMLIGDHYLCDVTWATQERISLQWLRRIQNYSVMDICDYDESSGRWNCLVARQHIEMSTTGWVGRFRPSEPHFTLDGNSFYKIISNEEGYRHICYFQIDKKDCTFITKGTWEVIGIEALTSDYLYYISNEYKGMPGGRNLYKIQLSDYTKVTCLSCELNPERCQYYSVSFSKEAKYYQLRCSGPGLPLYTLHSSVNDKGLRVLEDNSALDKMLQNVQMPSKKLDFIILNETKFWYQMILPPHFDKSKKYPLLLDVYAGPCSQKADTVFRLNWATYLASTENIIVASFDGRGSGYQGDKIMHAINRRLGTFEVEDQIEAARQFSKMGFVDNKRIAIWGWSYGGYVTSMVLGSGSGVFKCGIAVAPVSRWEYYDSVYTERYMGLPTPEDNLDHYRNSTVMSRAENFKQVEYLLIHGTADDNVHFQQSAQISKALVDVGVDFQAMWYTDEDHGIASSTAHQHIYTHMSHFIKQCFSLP

Sequence of Dipeptidyl peptidase 4 (Rattus norvegicus, UniProt P14740) (P14740 whole entry): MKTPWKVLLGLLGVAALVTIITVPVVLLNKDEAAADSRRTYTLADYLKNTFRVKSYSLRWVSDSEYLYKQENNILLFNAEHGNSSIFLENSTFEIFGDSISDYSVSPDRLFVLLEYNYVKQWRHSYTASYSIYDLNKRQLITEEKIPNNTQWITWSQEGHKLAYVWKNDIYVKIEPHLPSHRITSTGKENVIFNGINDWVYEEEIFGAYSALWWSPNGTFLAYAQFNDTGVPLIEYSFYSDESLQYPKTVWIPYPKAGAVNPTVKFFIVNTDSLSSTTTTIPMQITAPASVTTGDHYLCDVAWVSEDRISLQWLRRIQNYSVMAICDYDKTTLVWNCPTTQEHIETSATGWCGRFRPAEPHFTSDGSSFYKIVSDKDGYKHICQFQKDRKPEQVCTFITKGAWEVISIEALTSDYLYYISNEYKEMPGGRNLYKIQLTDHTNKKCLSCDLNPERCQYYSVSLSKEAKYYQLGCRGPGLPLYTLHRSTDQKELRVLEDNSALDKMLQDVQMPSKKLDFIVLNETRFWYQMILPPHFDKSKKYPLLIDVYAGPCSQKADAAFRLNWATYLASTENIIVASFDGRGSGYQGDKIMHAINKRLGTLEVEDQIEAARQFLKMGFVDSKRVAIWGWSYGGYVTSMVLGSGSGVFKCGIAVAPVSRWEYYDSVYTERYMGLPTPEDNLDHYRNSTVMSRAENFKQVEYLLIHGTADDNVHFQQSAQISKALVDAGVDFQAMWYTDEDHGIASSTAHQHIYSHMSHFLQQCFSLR

SMILES | IC50 (Dipeptidyl peptidase 4 [1]) | IC50 (Dipeptidyl peptidase 4 [2])
O=C([C@@H]1C[C@H](N2CCc3cc(F)ccc32)CN1)N1CCSC1 | 10.1 nM | 
O=C([C@@H]1C[C@H](N2CCc3cc(Br)ccc32)CN1)N1CCSC1 | 10.7 nM | 
O=C([C@@H]1C[C@H](NS(=O)(=O)c2ccccc2)CN1)N1CCSC1 | > 300 nM | > 300 nM
O=C([C@@H]1C[C@H](N2CCc3cc([N+](=O)[O-])ccc32)CN1)N1CCSC1 | 10.3 nM | 
O=C(N[C@@H]1CN[C@H](C(=O)N2CCSC2)C1)c1ccccc1 |  | > 300 nM
O=C([C@@H]1C[C@H](N2CCc3ccccc32)CN1)N1CCSC1 | 19.5 nM | 
O=C([C@@H]1C[C@H](N2CCc3cc(Cl)ccc32)CN1)N1CCSC1 | 13.4 nM | 
COc1ccc(N[C@@H]2CN[C@H](C(=O)N3CCSC3)C2)cc1 | 54.9 nM | 

Next, values leading:

IC50 (Dipeptidyl peptidase 4 [1]) | IC50 (Dipeptidyl peptidase 4 [2]) | SMILES
23 nM |  | N#Cc1ccc(CN(CCO)[C@@H]2CN[C@H](C(=O)N3CCSC3)C2)cc1
13.6 nM |  | CN(Cc1ccc(C#N)cc1)[C@@H]1CN[C@H](C(=O)N2CCSC2)C1
> 300 nM | > 300 nM | O=C(O[C@@H]1CN[C@H](C(=O)N2CCSC2)C1)c1ccccc1
> 300 nM | > 300 nM | N#Cc1ccc(C(=O)O[C@@H]2CN[C@H](C(=O)N3CCSC3)C2)cc1
> 300 nM | > 300 nM | N#Cc1ccc(S(=O)(=O)N[C@@H]2CN[C@H](C(=O)N3CCSC3)C2)cc1
